# The supplement of paper PMC6965134
# ± gives the standard deviation of the averaged measurements.
# Assay: TIMS collisional cross section (CCS, N2) of the lipid ion; higher = larger ion cross section
# Settings: ionization mode: positive, one isomer drawn
SMILES,TIMS collisional cross section (sample type: Liver) [Å²],TIMS collisional cross section (sample type: plasma) [Å²],TIMS collisional cross section (sample type: HeLa) [Å²]
CCCCCC/C=C\CCCCCCCC(=O)O[C@H](COC(=O)CCCCCCCCCCC)COC(=O)CCCCCCCCCCCCCCCC [TG 12:0_16:1_17:0] (ion (formula + adduct): [C48H90O6+NH4] 1+),303,–,–
CCCCCC/C=C\CCCCCCCC(=O)O[C@@H](COC(=O)CCCCCCC/C=C\CCCCCCCC)COC(=O)CCCCCCCCCCC [TG 12:0_16:1_18:1] (ion (formula + adduct): [C49H90O6+NH4] 1+),–,303.25 ± 0.35,–
CCCCC/C=C\C/C=C\CCCCCCCC(=O)OC[C@@H](COC(=O)CCCCCCCCCCC)OC(=O)CCCCCCC/C=C\CCCCCC [TG 12:0_16:1_18:2] (ion (formula + adduct): [C49H88O6+NH4] 1+),301.1,–,–
CCCCCCCCCCCCCCCC(=O)OC[C@@H](COC(=O)CCCCCCCCCCCC)OC(=O)CCCCCCCCCCCC [TG 13:0_13:0_16:0] (ion (formula + adduct): [C45H86O6+NH4] 1+),–,–,295.3
CCCCCCCCCCCCCC(=O)OC[C@@H](COC(=O)CCCCCCCCCCCC)OC(=O)CCCCCCCCCCCCC [TG 13:0_14:0_14:0] (ion (formula + adduct): [C44H84O6+NH4] 1+),–,292.3,–
CCCCCCCCCCCCCCCC(=O)OC[C@@H](COC(=O)CCCCCCCCCCCC)OC(=O)CCCCCCCCCCCCC [TG 13:0_14:0_16:0] (ion (formula + adduct): [C46H88O6+NH4] 1+),298.5,298.4 ± 0.14,298.2
CCCCCC/C=C\CCCCCCCC(=O)OC[C@@H](COC(=O)CCCCCCCCCCCC)OC(=O)CCCCCCCCCCCCC [TG 13:0_14:0_16:1] (ion (formula + adduct): [C46H86O6+NH4] 1+),296,296.1,296.4
CCCCCCCCCCCCCCCCC(=O)OC[C@@H](COC(=O)CCCCCCCCCCCC)OC(=O)CCCCCCCCCCCCC [TG 13:0_14:0_17:0] (ion (formula + adduct): [C47H90O6+NH4] 1+),301.8,–,–
CCCCCCCC/C=C\CCCCCCCC(=O)OC[C@@H](COC(=O)CCCCCCCCCCCC)OC(=O)CCCCCCCCCCCCC [TG 13:0_14:0_18:1] (ion (formula + adduct): [C48H90O6+NH4] 1+),303.1,–,–
CC/C=C\C/C=C\C/C=C\C/C=C\C/C=C\C/C=C\CCC(=O)OC[C@@H](COC(=O)CCCCCCCCCCCC)OC(=O)CCCCCCCCCCCCC [TG 13:0_14:0_22:6] (ion (formula + adduct): [C52H88O6+NH4] 1+),305.2,–,–
CCCC/C=C\CCCCCCCC(=O)O[C@@H](COC(=O)CCCCCCC/C=C\CCCCCC)COC(=O)CCCCCCCCCCCC [TG 13:0_14:1_16:1] (ion (formula + adduct): [C46H84O6+NH4] 1+),291.9,–,293.9
CCCCCCCCCCCCCCCC(=O)OC[C@@H](COC(=O)CCCCCCCCCCCC)OC(=O)CCCCCCCCCCCCCC [TG 13:0_15:0_16:0] (ion (formula + adduct): [C47H90O6+NH4] 1+),301.4,–,301.7
CCCCCC/C=C\CCCCCCCC(=O)OC[C@@H](COC(=O)CCCCCCCCCCCC)OC(=O)CCCCCCCCCCCCCC [TG 13:0_15:0_16:1] (ion (formula + adduct): [C47H88O6+NH4] 1+),299.6,–,299.7
CCCCCCCCCCCCCCCC(=O)OC[C@@H](COC(=O)CCCCCCCCCCCC)OC(=O)CCCCCCCCCCCCCCC [TG 13:0_16:0_16:0] (ion (formula + adduct): [C48H92O6+NH4] 1+),–,–,305
CCCCCCCCCCCCCCCCC(=O)OC[C@@H](COC(=O)CCCCCCCCCCCC)OC(=O)CCCCCCCCCCCCCCC [TG 13:0_16:0_17:0] (ion (formula + adduct): [C49H94O6+NH4] 1+),–,–,308
CCCCCCCC/C=C\CCCCCCCC(=O)OC[C@@H](COC(=O)CCCCCCCCCCCC)OC(=O)CCCCCCCCCCCCCCC [TG 13:0_16:0_18:1] (ion (formula + adduct): [C50H94O6+NH4] 1+),–,309.5,–
CCCCCC/C=C\CCCCCCCC(=O)O[C@@H](COC(=O)CCCCCCC/C=C\CCCCCCCC)COC(=O)CCCCCCCCCCCC [TG 13:0_16:1_18:1] (ion (formula + adduct): [C50H92O6+NH4] 1+),–,–,306.8
CCCCC/C=C\C/C=C\CCCCCCCC(=O)OC[C@@H](COC(=O)CCCCCCCCCCCC)OC(=O)CCCCCCC/C=C\CCCCCC [TG 13:0_16:1_18:2] (ion (formula + adduct): [C50H90O6+NH4] 1+),–,305.3,–

SMILES,TIMS collisional cross section (sample type: Liver) [Å²],TIMS collisional cross section (sample type: plasma) [Å²],TIMS collisional cross section (sample type: HeLa) [Å²]
CCCCCCCCCCCCCCC(=O)OC[C@@H](COC(=O)CCCCCCCCCCCCC)OC(=O)CCCCCCCCCCCCC [TG 14:0_14:0_15:0] (ion (formula + adduct): [C46H88O6+NH4] 1+),–,–,297.1
CCCCCCCCCCCCCCCC(=O)OC[C@@H](COC(=O)CCCCCCCCCCCCC)OC(=O)CCCCCCCCCCCCC [TG 14:0_14:0_16:0] (ion (formula + adduct): [C47H90O6+NH4] 1+),–,301.3 ± 0.4,301.7
CCCCCC/C=C\CCCCCCCC(=O)OC[C@@H](COC(=O)CCCCCCCCCCCCC)OC(=O)CCCCCCCCCCCCC [TG 14:0_14:0_16:1] (ion (formula + adduct): [C47H88O6+NH4] 1+),299.1,–,299.3
CCCCCCCCCCCCCCCCC(=O)OC[C@@H](COC(=O)CCCCCCCCCCCCC)OC(=O)CCCCCCCCCCCCC [TG 14:0_14:0_17:0] (ion (formula + adduct): [C48H92O6+NH4] 1+),–,–,304.6
CCCCCCCC/C=C\CCCCCCCC(=O)OC[C@@H](COC(=O)CCCCCCCCCCCCC)OC(=O)CCCCCCCCCCCCC [TG 14:0_14:0_18:1] (ion (formula + adduct): [C49H92O6+NH4] 1+),305.9,–,–
CCCC/C=C\CCCCCCCC(=O)O[C@H](COC(=O)CCCCCCCCCCCCC)COC(=O)CCCCCCCCCCCCCCC [TG 14:0_14:1_16:0] (ion (formula + adduct): [C47H88O6+NH4] 1+),299.8,–,–
CCCC/C=C\CCCCCCCC(=O)O[C@@H](COC(=O)CCCCCCC/C=C\CCCCCC)COC(=O)CCCCCCCCCCCCC [TG 14:0_14:1_16:1] (ion (formula + adduct): [C47H86O6+NH4] 1+),–,–,297.4
CCCCCCCCCCCCCCC(=O)OC[C@@H](COC(=O)CCCCCCCCCCCCC)OC(=O)CCCCCCCCCCCCCC [TG 14:0_15:0_15:0] (ion (formula + adduct): [C47H90O6+NH4] 1+),302,–,–
CCCCCCCCCCCCCCCC(=O)OC[C@@H](COC(=O)CCCCCCCCCCCCC)OC(=O)CCCCCCCCCCCCCC [TG 14:0_15:0_16:0] (ion (formula + adduct): [C48H92O6+NH4] 1+),304.9,304.83 ± 0.05,–
CCCCCC/C=C\CCCCCCCC(=O)OC[C@@H](COC(=O)CCCCCCCCCCCCC)OC(=O)CCCCCCCCCCCCCC [TG 14:0_15:0_16:1] (ion (formula + adduct): [C48H90O6+NH4] 1+),–,302.85 ± 0.49,302.8
CCCCC/C=C\CCCCCCCC(=O)O[C@H](COC(=O)CCCCCCCCCCCCC)COC(=O)CCCCCCCCCCCCCCC [TG 14:0_15:1_16:0] (ion (formula + adduct): [C48H90O6+NH4] 1+),303.1,–,–
CCCCCCCCCCCCCCCC(=O)OC[C@@H](COC(=O)CCCCCCCCCCCCC)OC(=O)CCCCCCCCCCCCCCC [TG 14:0_16:0_16:0] (ion (formula + adduct): [C49H94O6+NH4] 1+),308.4,308.1 ± 0.22,308.5
CCCCCC/C=C\CCCCCCCC(=O)OC[C@@H](COC(=O)CCCCCCCCCCCCC)OC(=O)CCCCCCCCCCCCCCC [TG 14:0_16:0_16:1] (ion (formula + adduct): [C49H92O6+NH4] 1+),306.1,306 ± 0.3,306.03 ± 0.35
CCCCCCCCCCCCCCCCC(=O)OC[C@@H](COC(=O)CCCCCCCCCCCCC)OC(=O)CCCCCCCCCCCCCCC [TG 14:0_16:0_17:0] (ion (formula + adduct): [C50H96O6+NH4] 1+),311.5,–,–
CCCCCCC/C=C\CCCCCCCC(=O)OC[C@@H](COC(=O)CCCCCCCCCCCCC)OC(=O)CCCCCCCCCCCCCCC [TG 14:0_16:0_17:1] (ion (formula + adduct): [C50H94O6+NH4] 1+),309,–,309.1
CCCCCCCCCCCCCCCCCC(=O)OC[C@@H](COC(=O)CCCCCCCCCCCCC)OC(=O)CCCCCCCCCCCCCCC [TG 14:0_16:0_18:0] (ion (formula + adduct): [C51H98O6+NH4] 1+),314.3,–,–
CCCCCCCC/C=C\CCCCCCCC(=O)OC[C@@H](COC(=O)CCCCCCCCCCCCC)OC(=O)CCCCCCCCCCCCCCC [TG 14:0_16:0_18:1] (ion (formula + adduct): [C51H96O6+NH4] 1+),312.4,312.07 ± 0.22,311.9 ± 0.14
CCCCC/C=C\C/C=C\CCCCCCCC(=O)OC[C@@H](COC(=O)CCCCCCCCCCCCC)OC(=O)CCCCCCCCCCCCCCC [TG 14:0_16:0_18:2] (ion (formula + adduct): [C51H94O6+NH4] 1+),308.9,–,–
